Data published in US20240131028A1, “CHEMOVACCINATION AGAINST PLASMODIUM INFECTION WITH SELECTIVE PLASMEPSIN X INHIBITORS” (Merck Sharp & Dohme LLC, priority 2021, published 2024).
pEC50: −log10 of the molar value. Where two headings read alike, the source gives them in different places.

System: ring stage parasites (Pf)
Experiment: Parasite lactate dehydrogenase (LDH) growth assay (Parasite Assay, PfLDH Assay)
Format: cell-based, P. falciparum
Details: 72 hours growth, LDH readout
[1] = Plasmodium falciparum, 72 h, Table 3, read-out: EC50
[2] = Plasmodium falciparum, 72 h, Table 4, read-out: EC50 (Table 4)

| SMILES | pEC50 [1] | other results |
| --- | --- | --- |
| CC1(C)CC(=O)N([C@H](c2cccnc2)[C@H]2C[C@@H]2C(=O)NC2CC(C)(C)Oc3c(F)cc(F)cc32)C(=N)N1 (some centres unmarked) [Example 122A] | 8.64 | – |
| CC1(C)CC(=O)N([C@H](c2cccnc2)[C@H]2C[C@@H]2C(=O)NC2CC(C)(C)Oc3c(F)cc(F)cc32)C(=N)N1 (some centres unmarked) [Example 122B] | – | pEC50 (Table 3, read-out: EC50): 8.66 |
| CC[C@]1(C)CC(=O)N([C@H](CCOC)[C@H]2C[C@@H]2C(=O)N[C@H]2CC(C)(C)Oc3ccc(C)cc32)C(=N)N1 [Example 123] | 8.70 | – |
| CC[C@]1(C)CC(=O)N([C@H](CCOC)[C@H]2C[C@@H]2C(=O)N[C@H]2CC(C)(C)Oc3ccc(Cl)cc32)C(=N)N1 [Example 124] | 9.10 | – |
| CC1(C)CC(=O)N(C[C@H]2C[C@@H]2C(=O)NC2CC(C)(C)Oc3ccc(OC(F)(F)F)cc32)C(=N)N1 (some centres unmarked) [Example 125A] | 6.64 | – |
| CC1(C)CC(=O)N(C[C@H]2C[C@@H]2C(=O)NC2CC(C)(C)Oc3ccc(OC(F)(F)F)cc32)C(=N)N1 (some centres unmarked) [Example 125B] | – | pEC50 (Table 3, read-out: EC50): 6.80 |
| COCC[C@H]([C@H]1C[C@@H]1C(=O)NC1CC(C)(C)Oc2ccc(OC(F)(F)F)cc21)N1C(=N)NC(C)(C)CC1=O (some centres unmarked) [Example 126A] | 8.33 | – |
| COCC[C@H]([C@H]1C[C@@H]1C(=O)NC1CC(C)(C)Oc2ccc(OC(F)(F)F)cc21)N1C(=N)NC(C)(C)CC1=O (some centres unmarked) [Example 126B] | – | pEC50 (Table 3, read-out: EC50): 8.08 |
| Cc1ccc2c(c1)[C@@H](NC(=O)[C@H]1C[C@@H]1CN1C(=N)NC(C)(C)CC1=O)CC(C)(C)O2 [Example 128] | 6.55 | – |
| CC[C@]1(C)CC(=O)N([C@H](CCOC)[C@H]2C[C@@H]2C(=O)NC2CC(C)(C)Oc3ccc(OC(F)(F)F)cc32)C(=N)N1 (some centres unmarked) [Example 129A] | 8.89 | – |
| CC[C@]1(C)CC(=O)N([C@H](CCOC)[C@H]2C[C@@H]2C(=O)NC2CC(C)(C)Oc3ccc(OC(F)(F)F)cc32)C(=N)N1 (some centres unmarked) [Example 129B] | – | pEC50 (Table 3, read-out: EC50): 8.60 |
| COCC[C@H]([C@H]1C[C@@H]1C(=O)NC1CC2(CCC2)Oc2ccccc21)N1C(=N)NC(C)(C)CC1=O (some centres unmarked) [Example 131A] | 8.17 | – |
| COCC[C@H]([C@H]1C[C@@H]1C(=O)NC1CC2(CCC2)Oc2ccccc21)N1C(=N)NC(C)(C)CC1=O (some centres unmarked) [Example 131B] | – | pEC50 (Table 3, read-out: EC50): 8.21 |
| COCC[C@H]([C@H]1C[C@@H]1C(=O)N[C@H]1CC(C)(C)Oc2ccc(C)cc21)N1C(=N)NC(C)(C)CC1=O [Example 132] | 8.17 | – |
| CC1(C)CC(=O)N(C[C@H]2C[C@@H]2C(=O)N[C@H]2CC3(CCC3)Oc3ccccc32)C(=N)N1 [Example 135] | 6.72 | – |
| Cc1cc2c(cc1Cl)[C@@H](NC(=O)[C@H]1C[C@@H]1CN1C(=N)NC(C)(C)CC1=O)CC(C)(C)O2 [Example 136] | 6.80 | – |
| COCC[C@H]([C@H]1C[C@@H]1C(=O)N[C@@H]1CC(C)(C)Oc2cc(C)c(Cl)cc21)N1C(=N)NC(C)(C)CC1=O [Example 137A] | 7.92 | – |
| COCC[C@H]([C@H]1C[C@@H]1C(=O)N[C@H]1CC(C)(C)Oc2cc(C)c(Cl)cc21)N1C(=N)NC(C)(C)CC1=O [Example 137B] | 8.19 | – |
| COCC[C@H]([C@H]1C[C@@H]1C(=O)N[C@H]1CC(C)(C)Oc2cc(C)c(C)cc21)N1C(=N)NC(C)(C)CC1=O [Example 138A] | 8.13 | – |
| COCC[C@H]([C@H]1C[C@@H]1C(=O)N[C@@H]1CC(C)(C)Oc2cc(C)c(C)cc21)N1C(=N)NC(C)(C)CC1=O [Example 138B] | 7.74 | – |
| CC1C[C@H](NC(=O)[C@H]2C[C@@H]2CN2C(=N)NC(C)(C)CC2=O)c2cc(F)ccc2O1 (some centres unmarked) [Example 139A] | 7.00 | – |
| CC1C[C@H](NC(=O)[C@H]2C[C@@H]2CN2C(=N)NC(C)(C)CC2=O)c2cc(F)ccc2O1 (some centres unmarked) [Example 139B] | – | pEC50 (Table 3, read-out: EC50): 6.89 |
| CC1(C)CC(=O)N(C[C@H]2C[C@@H]2C(=O)N[C@H]2CC(C3CC3)Oc3ccccc32)C(=N)N1 (some centres unmarked) [Example 140A] | 6.66 | – |
| CC1(C)CC(=O)N(C[C@H]2C[C@@H]2C(=O)N[C@H]2CC(C3CC3)Oc3ccccc32)C(=N)N1 (some centres unmarked) [Example 140B] | – | pEC50 (Table 3, read-out: EC50): 6.55 |
| CCC1(CC)CC(=O)N([C@H](CCOC)[C@H]2C[C@@H]2C(=O)N[C@@H]2CC(C)(C)Oc3ccccc32)C(=N)N1 [Example 141] | – | pEC50 [2]: 8.33 |
| CCC1(CC)CC(=O)N([C@H](CCOC)[C@H]2C[C@@H]2C(=O)N[C@H]2c3ccccc3OC(C)(C)[C@@H]2O)C(=N)N1 [Example 144] | – | pEC50 [2]: 6.78 |
| CCC1(CC)CC(=O)N([C@H](CCOC)[C@H]2C[C@@H]2C(=O)N[C@@H]2c3ccccc3OC(C)(C)[C@H]2O)C(=N)N1 [Example 145] | – | pEC50 [2]: 8.08 |
| CCC1(CC)CC(=O)N([C@H](CCOC)[C@H]2C[C@@H]2C(=O)N[C@H]2CC(C)(C)Oc3ccc(Cl)cc32)C(=N)N1 [Example 146] | – | pEC50 [2]: 8.96 |
| CCC1(CC)CC(=O)N([C@H](CCOC)[C@H]2C[C@@H]2C(=O)NC2CC(C)(C)Oc3c(Cl)cccc32)C(=N)N1 (some centres unmarked) [Example 148A] | – | pEC50 [2]: 8.57 |
